According to PMC2196289 (The Journal of Experimental Medicine, 1997):

Target: T1, mouse LXA4R (lipoxin A4 receptor) (Mus musculus, UniProt O08790)
T1 sequence (O08790 1-351): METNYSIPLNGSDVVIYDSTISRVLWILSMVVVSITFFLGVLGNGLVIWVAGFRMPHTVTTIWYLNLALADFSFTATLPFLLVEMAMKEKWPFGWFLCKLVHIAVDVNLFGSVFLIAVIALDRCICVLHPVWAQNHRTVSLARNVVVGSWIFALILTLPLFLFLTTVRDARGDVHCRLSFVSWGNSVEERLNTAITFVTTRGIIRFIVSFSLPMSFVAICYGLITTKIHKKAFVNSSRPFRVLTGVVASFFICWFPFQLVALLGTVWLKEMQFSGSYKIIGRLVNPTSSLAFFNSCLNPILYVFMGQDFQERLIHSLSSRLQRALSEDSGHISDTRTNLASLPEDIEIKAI
Experiment: [3H]LXA4 radioligand binding
Format: cell-based

Kd: 1.5 ± 0.6 nM
SMILES: CCCCC[C@H](O)/C=C/C=C\C=C\C=C\[C@@H](O)[C@@H](O)CCCC(=O)O [LXA4, 5(S),6(R),15(S)-trihydroxy7,9,13-trans-11-cis-eicosatetraenoic acid]
